Key:
[1] = test system: HT-29 human colon carcinoma cells; experiment: In vitro sensitivity, sulforhodamine B cytotoxicity assay, HT-29 (Table 2); type: cell-based; conditions: 72-hour incubation; averaged from two separate experiments
[2] = test system: MCF-7 human breast carcinoma; experiment: In vitro sensitivity, sulforhodamine B cytotoxicity assay, MCF-7 (Table 2); type: cell-based; conditions: 72-hour incubation; averaged from two separate experiments
[3] = test system: MCF-7/ADR (adriamycin-resistant); experiment: In vitro sensitivity, sulforhodamine B cytotoxicity assay, MCF-7/ADR (Table 2); type: cell-based, human; conditions: 72-hour incubation; averaged from two separate experiments
[4] = test system: A-549 human lung carcinoma; experiment: In vitro sensitivity, sulforhodamine B cytotoxicity assay, A-549 (Table 2); type: cell-based; conditions: 72-hour incubation; averaged from two separate experiments
Protocol: Briefly, 96-well microtiter plates were inoculated (100 μL/well) with 5×10^3 (A549) or 7.5×10^3 (OVCAR-3) cells/well, in RPMI-1640 supplemented with 10% FBS (growth media). The plates were incubated for 24 hr at 37° C., 100% humidity and 5% CO2. At 24 hours, growth media (100 μL) was added to designated “time zero” plates. Similarly, serial dilutions of drug or vehicle (in media) were added (100 μL aliquots) to the test and vehicle control wells at twice the predetermined highest concentration. […] Cells (including time zero plates) were then fixed with 50 μL of 50% trichloroacetic acid (TCA) (w:v) for adherent cells or 80% TCA for suspended cells, and plates refrigerated at 4° C. for 1 hr. […] The plates were then air-dried for 24 hr.

CDF1 female mice = experiment: Acute toxicity of liposomal paclitaxel or paclitaxel derivative given intraperitoneally; conditions: liposomes, i.p.
Protocol: Moreover, liposomes containing either paclitaxel or a 2′-(2-bromo) hydrophobic paclitaxel derivative (containing either a six-carbon (C-6), C-8, C-12, C-14 or C-16 acyl chain at the 2′ position) were administered, intraperitoneally in 5 doses, to SCID (severe combined inimunodeficiency) mice bearing a human ovarian cancer (OvCar 3), at a dose of 12.5 mg paclitaxel per kg or a dose of 50 mg paclitaxel derivative per kg.
CDF1 female mice, 5 or 10 mice per group, were intraperitoneally administered either paclitaxel-, 2′-C6-paclitaxel derivative-, or 2′-C16-paclitaxel derivative-containing liposomes, in a single dose, or 5 doses, of either 12.5, 25, 50, 100, 200, 300. 400 or 500 mg of paclitaxel or paclitaxel derivative per kg of mouse body weight.

[5] = test system: human MCF-7 breast carcinoma cells; experiment: HTD cytotoxicity, growth inhibition of MCF-7 cells (Table 1); type: cell-based; conditions: MCF-7, 72-hour incubation; ± standard deviation

Row | Structure (SMILES) | GI50 [1] [nM] | GI50 [2] [nM] | GI50 [3] [nM] | GI50 [4] [nM] | GI50 [5] [nM] | also measured
1 | CCCCC(Br)C(=O)O[C@@H](C(=O)O[C@H]1C[C@@]2(O)[C@@H](OC(=O)c3ccccc3)[C@@H]3[C@]4(OC(C)=O)CO[C@@H]4C[C@H](O)[C@@]3(C)C(=O)[C@H](OC(C)=O)C(=C1C)C2(C)C)[C@@H](NC(=O)c1ccccc1)c1ccccc1 (mixture of isomers) [2′-2-Bromohexanoyl-, 2′-(R)-[(±)-2-Bromohexanoyl] taxol] | 2.4 | 2.3 | > 10000 | 3.9 | 3 ± 0.2 | number of mice that died within the first 14 days post-injection/total (CDF1 female mice; five doses of 50 mg/kg): 0/5; number of mice that died within the first 14 days post-injection/total (CDF1 female mice; single dose 200 mg/kg): 0/2; number of mice that died within the first 14 days post-injection/total (CDF1 female mice; single dose 300 mg/kg): 4/5; number of mice that died within the first 14 days post-injection/total (CDF1 female mice; single dose 400 mg/kg): 5/5; number of mice that died within the first 14 days post-injection/total (CDF1 female mice; single dose 500 mg/kg): 5/5
2 | CCCCCC(=O)OC(C(=O)OC1CC2(O)C(OC(=O)c3ccccc3)C3C4(OC(C)=O)COC4CC(OC(=O)CCCCC)C3(C)C(=O)C(OC(C)=O)C(=C1C)C2(C)C)C(NC(=O)c1ccccc1)c1ccccc1 (centres unmarked) [2′,7-diHexanoyl-] |  |  |  |  | > 10000 | 
3 | CCCCCCC(Br)C(=O)O[C@@H](C(=O)O[C@H]1C[C@@]2(O)[C@@H](OC(=O)c3ccccc3)[C@@H]3[C@]4(OC(C)=O)CO[C@@H]4C[C@H](O)[C@@]3(C)C(=O)[C@H](OC(C)=O)C(=C1C)C2(C)C)[C@@H](NC(=O)c1ccccc1)c1ccccc1 (some centres unmarked) [2′-2-Bromo-C8-Paclitaxel, 2′-(2-bromocapryanoyl) paclitaxel] | 3.1 | 2.9 | > 10000 | 4.4 |  | 
4 | CCCCCCCCCCC(Br)C(=O)OC(C(=O)OC1CC2(O)C(OC(=O)c3ccccc3)C3C4(OC(C)=O)COC4CC(O)C3(C)C(=O)C(OC(C)=O)C(=C1C)C2(C)C)C(NC(=O)c1ccccc1)c1ccccc1 (centres unmarked) [2′-2-Bromo-C12-Paclitaxel, 2′-(2 bromolauranoyl) paclitaxel] | 3.2 | 2.8 | > 10000 | 4.4 |  | 
5 | CCCCCCCCCCCCC(Br)C(=O)OC(C(=O)OC1CC2(O)C(OC(=O)c3ccccc3)C3C4(OC(C)=O)COC4CC(O)C3(C)C(=O)C(OC(C)=O)C(=C1C)C2(C)C)C(NC(=O)c1ccccc1)c1ccccc1 (centres unmarked) [2′-2-Bromo-C14-Paclitaxel, 2′-(2 bromomyrstanoyl) paclitaxel] | 20.6 | 16 | > 10000 | 31.7 |  | 
6 | CC(=O)OC1C(=O)C2(C)C(O)CC3OCC3(OC(C)=O)C2C(OC(=O)c2ccccc2)C2(O)CC(OC(=O)C(OC(=O)CCCCCBr)C(NC(=O)c3ccccc3)c3ccccc3)C(C)=C1C2(C)C (centres unmarked) [2′-6-Bromohexanoyl-] |  |  |  |  | > 10000 | 
7 | CCCCCC(=O)OC1CC2OCC2(OC(C)=O)C2C(OC(=O)c3ccccc3)C3(O)CC(OC(=O)C(OC(C)=O)C(NC(=O)c4ccccc4)c4ccccc4)C(C)=C(C(OC(C)=O)C(=O)C12C)C3(C)C (centres unmarked) [2′-Acetyl-7-Hexanoyl-] |  |  |  |  | 4460 ± 60 | 
8 | CCCCCC(=O)OC(C(=O)OC1CC2(O)C(OC(=O)c3ccccc3)C3C4(OC(C)=O)COC4CC(O)C3(C)C(=O)C(OC(C)=O)C(=C1C)C2(C)C)C(NC(=O)c1ccccc1)c1ccccc1 (centres unmarked) [2′-Hexanoyl-] |  |  |  |  | 500 ± 151 | 
9 | CCCCC(Br)C(=O)OC1CC2OCC2(OC(C)=O)C2C(OC(=O)c3ccccc3)C3(O)CC(OC(=O)C(O)C(NC(=O)c4ccccc4)c4ccccc4)C(C)=C(C(OC(C)=O)C(=O)C12C)C3(C)C (centres unmarked) [7-2-Bromohexanoyl-] |  |  |  |  | 4.6 ± 0.1 | 
10 | CC(=O)OC1C(=O)C2(C)C(OC(=O)CCCCCBr)CC3OCC3(OC(C)=O)C2C(OC(=O)c2ccccc2)C2(O)CC(OC(=O)C(O)C(NC(=O)c3ccccc3)c3ccccc3)C(C)=C1C2(C)C (centres unmarked) [7-6-Bromohexanoyl-] |  |  |  |  | 18 ± 2 | 
11 | CCCCCC(=O)OC1CC2OCC2(OC(C)=O)C2C(OC(=O)c3ccccc3)C3(O)CC(OC(=O)C(O)C(NC(=O)c4ccccc4)c4ccccc4)C(C)=C(C(OC(C)=O)C(=O)C12C)C3(C)C (centres unmarked) [7-Hexanoyl-] |  |  |  |  | 27 ± 19 | 

— patent publication US6482850B2, “Hydrolysis-promoting hydrophobic taxane derivatives” (priority 1995, dated 2002)
